ChEMBL document CHEMBL5370659 (J Med Chem, 2023)
Calls of active or inactive are those of the source. No cut-off for these calls is given here.

Columns and labels:
[1] = AUMCExtra in Sprague-Dawley rat at 10 mg/kg, iv measured upto 1440 mins by LC-MS/MS analysis; type: ADME, organism-based; settings: in vivo, 24 h
MC-38 = experiment: Antitumor activity against mouse MC-38 cells subcutaneously transplanted in C57BL/6N mouse assessed as reduction in absolute tumor volume at 50 mg/kg, po bid measured on day 20 relative to control; type: functional; settings: MC-38, 480 h, route sc, time 20 day
[2] = MRT (0 to infinitive) in Sprague-Dawley rat at 10 mg/kg, iv measured upto 1440 mins by LC-MS/MS analysis; type: ADME, organism-based; settings: in vivo
[3] = Mutagenicity in Salmonella typhimurium TA98 in presence or absence of rat liver S9 fraction by Ames test; type: toxicity; settings: salmonella enterica subsp. enterica serovar typhimurium
[4] = Brain homogenate binding in mouse; type: ADME, tissue-based
[5] = MRT (0 to last) in CD-1 (ICR) mouse at 50 mg/kg, po measured upto 1440 mins by LC-MS/MS analysis; type: ADME, organism-based; settings: in vivo
[6] = Reduction in serotonin level in C57BL/6N mouse duodenum at 1.5 mg/kg, po bid treated for 7 days by HPLC analysis relative to control; type: functional; settings: 168 h, time 7 day
[7] = Toxicity in C57BL/6N mouse assessed as behavioral changes at 1.5 to 50 mg/kg, po bid treated for 6 to 7 days; type: organism-based; settings: in vivo, dose lower 1.5 mg/kg, time lower 6 day, dose upper 50 mg/kg, time upper 7 day
[8] = Permeability across apical to basal side in MDCK-MDR1 cells at pH 6.5/7.4 measured at 5 uM by LC-MS/MS analysis; type: ADME, cell-based, Canis lupus familiaris; settings: dog, MDCK-MDR1, pH 6.5
[9] = Reduction in serotonin level in C57BL/6N mouse duodenum at 15 mg/kg, po bid treated for 7 days by HPLC analysis relative to control; type: functional; settings: 168 h, time 7 day
[10] = MRT (0 to last) in Sprague-Dawley rat at 10 mg/kg, iv measured upto 1440 mins by LC-MS/MS analysis; type: ADME, organism-based; settings: in vivo
[11] = Cmax in Sprague-Dawley rat at 20 mg/kg, po measured upto 1440 mins by LC-MS/MS analysis; type: ADME, organism-based; parameters: time < 1440 min, dose 20 mg/kg, route po; settings: in vivo
[12] = Cmax in CD-1 (ICR) mouse at 50 mg/kg, po measured upto 1440 mins by LC-MS/MS analysis; type: ADME, organism-based; parameters: dose 50 mg/kg, time < 1440 min, route po; settings: in vivo
Mus musculus = experiment: Effect on time spent in central zone of C57BL/6N mouse at 100 mg/kg, po treated for 14 days by locomotor activity test; type: functional, organism-based; settings: time 14.0 day
Cytochrome P450 1A2 = molecular target: T1, Cytochrome P450 1A2 (Homo sapiens, UniProt P05177); experiment: Inhibition of CYP1A2 in human liver microsome using phenacetin as substrate measured upto 50 uM incubated for 10 mins followed by NADPH addition incubated for 10 mins by LC/MS/MS analysis; type: ADME; settings: microsomes, 20 min
T1 sequence (P05177 whole entry): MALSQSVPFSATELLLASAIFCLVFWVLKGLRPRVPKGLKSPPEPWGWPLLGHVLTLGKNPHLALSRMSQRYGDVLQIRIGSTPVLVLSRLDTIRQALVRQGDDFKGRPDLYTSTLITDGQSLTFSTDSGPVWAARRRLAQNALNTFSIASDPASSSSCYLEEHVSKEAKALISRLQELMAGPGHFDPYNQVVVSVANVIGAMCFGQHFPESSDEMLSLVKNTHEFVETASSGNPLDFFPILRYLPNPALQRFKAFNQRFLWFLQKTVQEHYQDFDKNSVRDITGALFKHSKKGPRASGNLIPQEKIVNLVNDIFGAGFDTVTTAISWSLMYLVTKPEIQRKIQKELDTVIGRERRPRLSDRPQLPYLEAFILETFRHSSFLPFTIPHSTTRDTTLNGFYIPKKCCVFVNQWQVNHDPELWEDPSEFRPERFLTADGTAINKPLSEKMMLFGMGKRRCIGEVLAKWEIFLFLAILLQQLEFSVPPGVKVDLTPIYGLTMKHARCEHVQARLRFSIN

[13] = Volume of distribution at steady state in Sprague-Dawley rat at 10 mg/kg, iv measured upto 1440 mins by LC-MS/MS analysis; type: ADME, organism-based; settings: in vivo, read-out: Vdss
[14] = Toxicity in C57BL/6N mouse subcutaneously transplanted with mouse MC-38 cells assessed as body weight change at 50 mg/kg, po bid measured on day 20; type: organism-based; settings: in vivo, sc, 480 h, time 20 day
[15] = Plasma protein binding in human; type: ADME, cell-free; settings: read-out: PPB (converted)
[16] = Drug uptake in CD-1 (ICR) mouse lung at 50 mg/kg measured 2 hrs by LC-MS/MS analysis; type: ADME, organism-based; settings: read-out: Drug uptake
[17] = AUMCExtra in Sprague-Dawley rat at 50 mg/kg, po measured upto 1440 mins by LC-MS/MS analysis; type: ADME, organism-based; settings: in vivo, 24 h
[18] = Metabolic stability in rat hepatocytes assessed as half life; type: ADME, cell-based, Hepatocyte
[19] = Clearance in Sprague-Dawley rat at 10 mg/kg, iv measured upto 1440 mins by LC-MS/MS analysis; type: ADME, organism-based; settings: in vivo
[20] = Drug uptake in Sprague-Dawley rat brain at 50 mg/kg, po measured at 0.5 hrs by LC-MS/MS analysis; type: ADME, organism-based; settings: read-out: Drug uptake
[21] = AUMCExtra in CD-1 (ICR) mouse at 50 mg/kg, po measured upto 1440 mins by LC-MS/MS analysis; type: ADME, organism-based; settings: in vivo, 24 h
[22] = MRT (0 to last) in Sprague-Dawley rat at 50 mg/kg, po measured upto 1440 mins by LC-MS/MS analysis; type: ADME, organism-based; settings: in vivo
[23] = AUCExtra in CD-1 (ICR) mouse at 50 mg/kg, po measured upto 1440 mins by LC-MS/MS analysis; type: ADME, organism-based; settings: in vivo, 24 h
[24] = Plasma concentration in Sprague-Dawley rat at 20 mg/kg, po measured at 2 hrs by LC-MS/MS analysis; type: ADME, organism-based
[25] = Plasma protein binding in rat; type: ADME, cell-free; settings: read-out: PPB (converted)
[26] = Initial drug concentration in Sprague-Dawley rat at 10 mg/kg, iv measured upto 1440 mins by LC-MS/MS analysis; type: ADME, organism-based; settings: in vivo
[27] = Half life in Sprague-Dawley rat at 50 mg/kg, po measured upto 1440 mins by LC-MS/MS analysis; type: ADME, organism-based; settings: in vivo
[28] = Toxicity in C57BL/6N mouse subcutaneously transplanted with mouse MC-38 cells assessed as general toxic effects at 50 mg/kg, po bid measured on day 20; type: organism-based; settings: in vivo, sc, 480 h, time 20 day
[29] = MRT (0 to infinitive) in Sprague-Dawley rat at 20 mg/kg, po measured upto 1440 mins by LC-MS/MS analysis; type: ADME, organism-based; settings: in vivo
[30] = Oral bioavailability in Sprague-Dawley rat at 50 mg/kg measured upto 1440 mins by LC-MS/MS analysis; type: ADME, organism-based; settings: in vivo
[31] = AUC (0 to infinitive) in Sprague-Dawley rat at 20 mg/kg, po measured upto 1440 mins by LC-MS/MS analysis; type: ADME, organism-based; parameters: dose 20 mg/kg, time < 1440 min, route po; settings: in vivo
[32] = Drug uptake in Sprague-Dawley rat brain at 20 mg/kg, po measured at 0.5 hrs by LC-MS/MS analysis; type: ADME, organism-based; settings: in vivo, BLD = below limit of detection

**Q.** Which AUMC [1] does the source give for CCn1c(=O)[nH]c(=O)c2c1nc(Cc1cn3cc(C)sc3n1)n2CC1COC1 here?
**A.** 13.6%

**Q.** And the inhibition in vivo at 50 mg/kg (MC-38)?
**A.** 35%

**Q.** And the MRT inf [2]?
**A.** 0.7 h

**Q.** What about the Activity [3] of the same molecule?
**A.** Non-Toxic

**Q.** And the Activity [4]?
**A.** 72%

**Q.** What about the MRT last at 24 h [5] of the same molecule?
**A.** 1.58 h

**Q.** And the inhibition in vivo at 1.5 mg/kg [6]?
**A.** 40%

**Q.** And the Activity [7]?
**A.** Non-Toxic

**Q.** And the Papp A→B at 5 µM [8]?
**A.** < 0.54 ×10⁻⁶ cm/s

**Q.** And the inhibition in vivo at 15 mg/kg [9]?
**A.** 50%

**Q.** And the MRT last at 24 h [10]?
**A.** 0.61 h

**Q.** What about the Cmax [11] of the same molecule?
**A.** 2090 ng/mL

**Q.** What about the Cmax [12] of the same molecule?
**A.** 6950 ng/mL

**Q.** What about the Activity (Mus musculus) of the same molecule?
**A.** inactive

**Q.** And the “inhibition (INH)” value (Cytochrome P450 1A2)?
**A.** Not Active

**Q.** And the Vd [13]?
**A.** 1.4 L/kg

**Q.** What about the Activity [14] of the same molecule?
**A.** Non-Toxic

**Q.** What about the fraction unbound [15] of the same molecule?
**A.** 0.49

**Q.** And the concentration at 2 h [16]?
**A.** 168 ng/g

**Q.** What about the AUMC [17] of the same molecule?
**A.** 4.6%

**Q.** And the half-life [18]?
**A.** > 2.42 h

**Q.** And the clearance [19]?
**A.** 33.2 mL/min/kg

**Q.** And the concentration at 0.5 h [20]?
**A.** 43 ng/g

**Q.** And the AUMC [21]?
**A.** 4.85%

**Q.** What about the MRT last at 24 h [22] of the same molecule?
**A.** 2.63 h

**Q.** And the “%AUCextra” value [23]?
**A.** 0.552%

**Q.** What about the concentration at 2 h [24] of the same molecule?
**A.** 196 ng/mL

**Q.** What about the fraction unbound [25] of the same molecule?
**A.** 0.52

**Q.** What about the C0 at 24 h [26] of the same molecule?
**A.** 16300 ng/mL

**Q.** What about the half-life [27] of the same molecule?
**A.** 3.41 h

**Q.** And the Activity [28]?
**A.** Non-Toxic

**Q.** And the MRT inf [29]?
**A.** 3.14 h

**Q.** And the bioavailability [30]?
**A.** 32.7%

**Q.** What about the AUC(0-inf) [31] of the same molecule?
**A.** 3320 ng·h/mL

**Q.** And the Drug uptake [32]?
**A.** Bld
